Measurements reported in patent publication US20240376094A2, “SELECTIVE BCL-XL PROTAC COMPOUNDS AND METHODS OF USE” (Les Laboratoires Servier, priority 2021, published 2024).

Columns and labels:
[1] = target: T1, Bcl-xL (Homo sapiens, UniProt Q07817); assay: HCT116 Bcl-xL degradation, capillary-based immunoassay (WES); type: cell-based; conditions: HCT116, 24 h, 9-point serial dilution
T1 construct: Measured levels of Bcl-xL protein of HCT116 cells treated with the tested compounds; host or cells: HCT116
T1 sequence (Q07817 whole entry): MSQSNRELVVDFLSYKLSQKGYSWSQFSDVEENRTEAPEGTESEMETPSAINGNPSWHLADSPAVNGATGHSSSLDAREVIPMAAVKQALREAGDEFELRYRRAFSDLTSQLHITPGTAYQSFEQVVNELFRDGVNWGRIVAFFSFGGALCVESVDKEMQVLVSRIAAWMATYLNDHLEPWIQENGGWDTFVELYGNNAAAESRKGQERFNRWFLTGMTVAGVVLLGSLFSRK
Description: HCT116 cells were purchased from ATCC and cultivated in RPMI 1640 supplemented with 10% heat inactivated fetal bovine serum, penicillin (100 IU/mi), streptomycin (100 μg/ml) and L-glutamine (2 mM). Cells were cultured at 37° C. in a humidified atmosphere containing 5% CO2. Cells were seeded in 96 microwell plates, 24 h later cells were treated with compounds (2-point 10/100 nM and/or 9-point serial dilution to determine DC50; quadruplicates) during 24 h and harvested in lysis buffer containing 10 mM Hepes (pH 7.5), 150 mM KCl, 5 mM MgCl2, 1 mM EDTA, 0.4% TritonX100, protease and phosphatase inhibitors cocktails (Calbiochem).
Protein concentration in the supernatants was determined using the Pierce BCA protein assay kit (Thermo Fisher Scientific). Lysates (1.5 μg/μL) were analyzed using an automated capillary electrophoresis WES system with 2-40 kDa Wes Separation Module (25 capillary cartridges, Proteinsimple), in accordance with the manufacturer's protocols. Antibodies against the following proteins were used: Bcl-xL (#2764, Cell Signaling Technology, 1:50) and cofilin (#5175, Cell Signaling Technology, 1:1000). Signals were detected with an HRP-conjugated secondary anti-rabbit antibody (#042-206, Proteinsimple) and were quantified using Compass software (version 4.0, Proteinsimple).
Bcl-xL level was calculated by normalizing Bcl-xL values to cofilin and expressed as a percentage of the normalized value of the untreated cells. DC50 were calculated using standard four-parametric curve fitting. DC50 is defined as the compound concentration at which Bcl-xL is reduced to 50% of that measured for the control. Measured levels of Bcl-xL protein of HCT116 cells treated with the tested compounds at 2-point 10 nM/100 nM and/or 9-point for DC50 determination are shown in Table 15.

[2] = system: MOLT-4 cells; assay: MOLT-4 cell viability, CTG assay; type: cell-based; conditions: Homo sapiens, MOLT-4, 48 h
Description: The MTT colorimetric assay is based on the mitochondrial reduction of tetrazolium salt by living cells. The viable cell number is proportional to the production of formazan salts, which can be read spectrophotometrically at 540 nm. The CTG luminescent assay (CellTiter GLO, Promega) is based on a reagent which lyses cells and measures total adenosine triphosphate (ATP) content. The viable cell number is proportional to the production of ATP.
MOLT-4 cells were purchased from ATCC and cultivated in RPMI 1640 supplemented with 10% heat inactivated fetal bovine serum, penicillin (100 IU/mi), streptomycin (100 μg/ml) and L-glutamine (2 mM). Cells were cultured at 37° C. in a humidified atmosphere containing 5% […].
For CTG assay, cells were seeded in 384 microwell plates (40 μL per well) and exposed to the compounds for 48 h (11-point serial dilution with 5-fold factor, triplicates). At the end of incubation time, 40 μL of CTG solution were added per well. Wells were mixed thoroughly, and plates were incubated at room temperature for 10 minutes to stabilize luminescent signals prior to reading using a luminescence reader (PHERAStar FSX Reader, BMG Labtech).
IC50, were calculated using standard four-parametric curve fitting. IC50 is defined as the compound concentration at which the MTT or CTG signal is reduced to 50% of that measured for the control. Results shown in Table 14 represent the mean of at least 2 independent experiments.

| SMILES | DC50 [1] [nM] | IC50 [2] [nM] |
| --- | --- | --- |
| Cc1cc(N(CCCCN(C)C(=O)CCCCCCCCCCCNc2cccc3c2C(=O)N(C2CCC(=O)NC2=O)C3=O)c2ccc(-c3cnn(CC45CC6(C)CC(C)(C4)CC(OCCN(C)C)(C6)C5)c3C)c(C(=O)O)n2)nnc1Nc1nc2ccccc2s1 (stereo not drawn) [Example 93, 6-[[6-(1,3-benzothiazol-2-ylamino)-5-methyl-pyridazin-3-yl]-[4-[12-[[2-(2,6-dioxo-3-piperidyl)-1,3-dioxo-isoindolin-4-yl]amino]dodecanoyl-methyl-amino]butyl]amino]-3-[1-[[3-[2-(dimethylamino)ethoxy]-5,7-dimethyl-1-adamantyl]methyl]-5-methyl-pyrazol-4-yl]pyridine-2-carboxylic acid] | 0.951 | 19.6 |
| CN[C@@H](C)C(=O)N[C@H](C(=O)N1CCC[C@H]1c1nc(C(=O)c2cccc(OCCCCCCCCCCCCN(C)CCOC34CC5(C)CC(C)(CC(Cn6ncc(-c7ccc(N8CCCc9c8nnc(Nc8nc%10ccccc%10s8)c9C)nc7C(=O)O)c6C)(C5)C3)C4)c2)cs1)C1CCCCC1 [Example 96, 6-[3-(1,3-benzothiazol-2-ylamino)-4-methyl-6,7-dihydro-5H-pyrido[2,3-c]pyridazin-8-yl]-3-[1-[[3-[2-[12-[3-[2-[(2S)-1-[(2S)-2-cyclohexyl-2-[[(2S)-2-(methylamino)propanoyl]amino]acetyl]pyrrolidin-2-yl]thiazole-4-carbonyl]phenoxy]dodecyl-methyl-amino]ethoxy]-5,7-dimethyl-1-adamantyl]methyl]-5-methyl-pyrazol-4-yl]pyridine-2-carboxylic acid] | > 316 | 4.36 |
| CN[C@@H](C)C(=O)N[C@H](C(=O)N1CCC[C@H]1c1nc(C(=O)c2cccc(OCCCCCCCCN(C)CCOC34CC5(C)CC(C)(CC(Cn6ncc(-c7ccc(N8CCCc9c8nnc(Nc8nc%10ccccc%10s8)c9C)nc7C(=O)O)c6C)(C5)C3)C4)c2)cs1)C1CCCCC1 [Example 97, 6-[3-(1,3-benzothiazol-2-ylamino)-4-methyl-6,7-dihydro-5H-pyrido[2,3-c]pyridazin-8-yl]-3-[1-[[3-[2-[8-[3-[2-[(2S)-1-[(2S)-2-cyclohexyl-2-[[(2S)-2-(methylamino)propanoyl]amino]acetyl]pyrrolidin-2-yl]thiazole-4-carbonyl]phenoxy]octyl-methyl-amino]ethoxy]-5,7-dimethyl-1-adamantyl]methyl]-5-methyl-pyrazol-4-yl]pyridine-2-carboxylic acid] | 0.356 | 3.76 |
| CN[C@@H](C)C(=O)N[C@H](C(=O)N1CCC[C@H]1c1nc(C(=O)c2cccc(OCCCCCCCCCCN(C)CCOC34CC5(C)CC(C)(CC(Cn6ncc(-c7ccc(N8CCCc9c8nnc(Nc8nc%10ccccc%10s8)c9C)nc7C(=O)O)c6C)(C5)C3)C4)c2)cs1)C1CCCCC1 [Example 98, 6-[3-(1,3-benzothiazol-2-ylamino)-4-methyl-6,7-dihydro-5H-pyrido[2,3-c]pyridazin-8-yl]-3-[1-[[3-[2-[10-[3-[2-[(2S)-1-[(2S)-2-cyclohexyl-2-[[(2S)-2-(methylamino)propanoyl]amino]acetyl]pyrrolidin-2-yl]thiazole-4-carbonyl]phenoxy]decyl-methyl-amino]ethoxy]-5,7-dimethyl-1-adamantyl]methyl]-5-methyl-pyrazol-4-yl]pyridine-2-carboxylic acid] | 0.362 | 4.74 |
| CN[C@@H](C)C(=O)N[C@H](C(=O)N1CCC[C@H]1c1nc(C(=O)c2cccc(OCCN(C)CCOC34CC5(C)CC(C)(CC(Cn6ncc(-c7ccc(N8CCCc9c8nnc(Nc8nc%10ccccc%10s8)c9C)nc7C(=O)O)c6C)(C5)C3)C4)c2)cs1)C1CCCCC1 [Example 101, 6-[3-(1,3-benzothiazol-2-ylamino)-4-methyl-6,7-dihydro-5H-pyrido[2,3-c]pyridazin-8-yl]-3-[1-[[3-[2-[2-[3-[2-[(2S)-1-[(2S)-2-cyclohexyl-2-[[(2S)-2-(methylamino)propanoyl]amino]acetyl]pyrrolidin-2-yl]thiazole-4-carbonyl]phenoxy]ethyl-methyl-amino]ethoxy]-5,7-dimethyl-1-adamantyl]methyl]-5-methyl-pyrazol-4-yl]pyridine-2-carboxylic acid] | 0.612 | 7.68 |
| CN[C@@H](C)C(=O)N[C@H](C(=O)N1CCC[C@H]1c1nc(C(=O)c2cccc(OCCCCCCN(C)CCOC34CC5(C)CC(C)(CC(Cn6ncc(-c7ccc(N8CCCc9c8nnc(Nc8nc%10ccccc%10s8)c9C)nc7C(=O)O)c6C)(C5)C3)C4)c2)cs1)C1CCCCC1 [Example 102, 6-[3-(1,3-benzothiazol-2-ylamino)-4-methyl-6,7-dihydro-5H-pyrido[2,3-c]pyridazin-8-yl]-3-[1-[[3-[2-[6-[3-[2-[(2S)-1-[(2S)-2-cyclohexyl-2-[[(2S)-2-(methylamino)propanoyl]amino]acetyl]pyrrolidin-2-yl]thiazole-4-carbonyl]phenoxy]hexyl-methyl-amino]ethoxy]-5,7-dimethyl-1-adamantyl]methyl]-5-methyl-pyrazol-4-yl]pyridine-2-carboxylic acid] | 0.448 | 4.07 |
| Cc1c(Nc2nc3ccccc3s2)nnc2c1CCCN2c1ccc(-c2cnn(CC34CC5(C)CC(C)(C3)CC(OCCN(C)CCCCCCCCCOc3ccc6c(c3)C(=O)N(C3CCC(=O)NC3=O)C6=O)(C5)C4)c2C)c(C(=O)O)n1 (stereo not drawn) [Example 104, 6-[3-(1,3-benzothiazol-2-ylamino)-4-methyl-6,7-dihydro-5H-pyrido[2,3-c]pyridazin-8-yl]-3-[1-[[3-[2-[9-[2-(2,6-dioxo-3-piperidyl)-1,3-dioxo-isoindolin-5-yl]oxynonyl-methyl-amino]ethoxy]-5,7-dimethyl-1-adamantyl]methyl]-5-methyl-pyrazol-4-yl]pyridine-2-carboxylic acid] | 0.0184 | 1.74 |
| Cc1c(Nc2nc3ccccc3s2)nnc2c1CCCN2c1ccc(-c2cnn(CC34CC5(C)CC(C)(C3)CC(OCCN(C)CCCCCCCCCCCOc3ccc6c(c3)C(=O)N(C3CCC(=O)NC3=O)C6=O)(C5)C4)c2C)c(C(=O)O)n1 (stereo not drawn) [Example 105, 6-[3-(1,3-benzothiazol-2-ylamino)-4-methyl-6,7-dihydro-5H-pyrido[2,3-c]pyridazin-8-yl]-3-[1-[[3-[2-[11-[2-(2,6-dioxo-3-piperidyl)-1,3-dioxo-isoindolin-5-yl]oxyundecyl-methyl-amino]ethoxy]-5,7-dimethyl-1-adamantyl]methyl]-5-methyl-pyrazol-4-yl]pyridine-2-carboxylic acid] | 0.0447 | 1.75 |
| Cc1c(Nc2nc3ccccc3s2)nnc2c1CCCN2c1ccc(-c2cnn(CC34CC5(C)CC(C)(C3)CC(OCCN(C)CCCCCCCOc3ccc6c(c3)C(=O)N(C3CCC(=O)NC3=O)C6=O)(C5)C4)c2C)c(C(=O)O)n1 (stereo not drawn) [Example 106, 6-[3-(1,3-benzothiazol-2-ylamino)-4-methyl-6,7-dihydro-5H-pyrido[2,3-c]pyridazin-8-yl]-3-[1-[[3-[2-[7-[2-(2,6-dioxo-3-piperidyl)-1,3-dioxo-isoindolin-5-yl]oxyheptyl-methyl-amino]ethoxy]-5,7-dimethyl-1-adamantyl]methyl]-5-methyl-pyrazol-4-yl]pyridine-2-carboxylic acid] | 0.211 | 2.63 |
